According to US4287206A, “Halogen derivatives of 8-hydroxycarboxylic acids; the processes for their preparation and medicaments in which they are present” (priority 1978, dated 1981):

Assays:
[1] = system: mice; assay: Anti-oxotremorine activity in mice (hypothermia induced by oxotremorine); format: in vivo; conditions: oxotremorine 0.5 mg.kg^-1 i.p.
Experimental: Anti-oxotremorine activity in mice
At time 0, the mice receive oxotremorine (0.5 mg.kg^-1) by intraperitoneal administration; after 30 minutes, either distilled water or the medicament according to the invention, obtained in accordance with Example I, is administered to the mice intraperitoneally or orally.
The mice are then observed and the trembling is rated from 0 to 3 as a function of its intensity, every 10 minutes for 30 minutes. Moreover, the existence of peripheral symptoms (tears, hypersialosis and defections) is observed for 2 hours, in the presence or absence of trembling. The rectal temperature is measured every 30 minutes for 2 hours, after administration of oxotremorine.

[2] = system: mice; assay: Sleep induced by pentobarbital in mice; format: in vivo; conditions: pentobarbital 50 mg.kg^-1 i.p.
Experimental: (b) Absence of modification of the effects of pentobarbital
At time 0, the mice receive, by intraperitoneal or oral administration, distilled water or the medicament according to the invention, obtained in accordance with Example I. After 30 minutes, they receive pentobarbital (50 mg.kg^-1) by intraperitoneal administration.

Structure (SMILES): CC1CC(c2ccc(Cl)cc2)C(c2ccccc2)C(=O)O1 (stereo not drawn) [Example I, trans-4-(4'-chlorophenyl)-6-methyl-3-phenyl-3,4,5,6-tetrahydropyrone-2]
- Rectal temperatures °C. ([1]; 1 mg/kg oral, 30 min): 29.8 ± 0.40 °C
- Rectal temperatures °C. ([1]; 1 mg/kg oral, 60 min): 27.8 ± 0.65 °C
- Rectal temperatures °C. ([1]; 1 mg/kg oral, 90 min): 27.8 ± 1.36 °C
- Rectal temperatures °C. ([1]; 1 mg/kg oral, 120 min): 28.0 ± 1.65 °C
- Rectal temperatures °C. ([1]; 2 mg/kg intraperitoneal, 30 min): 30.8 ± 0.43 °C
- Rectal temperatures °C. ([1]; 2 mg/kg intraperitoneal, 60 min): 29.1 ± 0.46 °C
- Rectal temperatures °C. ([1]; 2 mg/kg intraperitoneal, 90 min): 29.4 ± 0.52 °C
- Rectal temperatures °C. ([1]; 2 mg/kg intraperitoneal, 120 min): 29.9 ± 0.77 °C
- Rectal temperatures °C. ([1]; 2 mg/kg oral, 30 min): 31.5 ± 0.43 °C
- Rectal temperatures °C. ([1]; 2 mg/kg oral, 60 min): 31.0 ± 0.71 °C
- Rectal temperatures °C. ([1]; 2 mg/kg oral, 90 min): 31.2 ± 0.86 °C
- Rectal temperatures °C. ([1]; 2 mg/kg oral, 120 min): 31.9 ± 1.14 °C
- Rectal temperatures °C. ([1]; 4 mg/kg intraperitoneal, 30 min): 30.2 ± 0.36 °C
- Rectal temperatures °C. ([1]; 4 mg/kg intraperitoneal, 60 min): 31.8 ± 0.42 °C
- Rectal temperatures °C. ([1]; 4 mg/kg intraperitoneal, 90 min): 33.5 ± 0.49 °C
- Rectal temperatures °C. ([1]; 4 mg/kg intraperitoneal, 120 min): 35.7 ± 0.40 °C
- Rectal temperatures °C. ([1]; 4 mg/kg oral, 30 min): 31.8 ± 0.38 °C
- Rectal temperatures °C. ([1]; 4 mg/kg oral, 60 min): 31.0 ± 0.34 °C
- Rectal temperatures °C. ([1]; 4 mg/kg oral, 90 min): 31.6 ± 0.91 °C
- Rectal temperatures °C. ([1]; 4 mg/kg oral, 120 min): 32.4 ± 0.89 °C
- Rectal temperatures °C. ([1]; 8 mg/kg intraperitoneal, 30 min): 32.1 ± 0.52 °C
- Rectal temperatures °C. ([1]; 8 mg/kg intraperitoneal, 60 min): 31.3 ± 0.52 °C
- Rectal temperatures °C. ([1]; 8 mg/kg intraperitoneal, 90 min): 32.2 ± 0.61 °C
- Rectal temperatures °C. ([1]; 8 mg/kg intraperitoneal, 120 min): 33.8 ± 0.91 °C
- Rectal temperatures °C. ([1]; 8 mg/kg oral, 30 min): 32.6 ± 0.32 °C
- Rectal temperatures °C. ([1]; 8 mg/kg oral, 60 min): 32.4 ± 0.29 °C
- Rectal temperatures °C. ([1]; 8 mg/kg oral, 90 min): 32.9 ± 0.38 °C
- Rectal temperatures °C. ([1]; 8 mg/kg oral, 120 min): 33.8 ± 0.56 °C
- Rectal temperatures °C. ([1]; 16 mg/kg intraperitoneal, 30 min): 32.9 ± 0.46 °C
- Rectal temperatures °C. ([1]; 16 mg/kg intraperitoneal, 60 min): 32.0 ± 0.65 °C
- Rectal temperatures °C. ([1]; 16 mg/kg intraperitoneal, 90 min): 32.8 ± 0.60 °C
- Rectal temperatures °C. ([1]; 16 mg/kg intraperitoneal, 120 min): 35.9 ± 0.81 °C
- Rectal temperatures °C. ([1]; 16 mg/kg oral, 30 min): 31.9 ± 0.53 °C
- Rectal temperatures °C. ([1]; 16 mg/kg oral, 60 min): 31.9 ± 0.49 °C
- Rectal temperatures °C. ([1]; 16 mg/kg oral, 90 min): 32.8 ± 0.70 °C
- Rectal temperatures °C. ([1]; 16 mg/kg oral, 120 min): 33.6 ± 0.97 °C
- Rectal temperatures °C. ([1]; 32 mg/kg intraperitoneal, 30 min): 32.0 ± 0.70 °C
- Rectal temperatures °C. ([1]; 32 mg/kg intraperitoneal, 60 min): 31.2 ± 0.73 °C
- Rectal temperatures °C. ([1]; 32 mg/kg intraperitoneal, 90 min): 32.2 ± 0.85 °C
- Rectal temperatures °C. ([1]; 32 mg/kg intraperitoneal, 120 min): 33.2 ± 1.2 °C
- Rectal temperatures °C. ([1]; 32 mg/kg oral, 30 min): 33.0 ± 0.60 °C
- Rectal temperatures °C. ([1]; 32 mg/kg oral, 60 min): 32.7 ± 0.63 °C
- Rectal temperatures °C. ([1]; 32 mg/kg oral, 90 min): 32.8 ± 0.62 °C
- Rectal temperatures °C. ([1]; 32 mg/kg oral, 120 min): 33.7 ± 0.95 °C
- Rectal temperatures °C. ([1]; 64 mg/kg intraperitoneal, 30 min): 34.0 ± 0.87 °C
- Rectal temperatures °C. ([1]; 64 mg/kg intraperitoneal, 60 min): 33.0 ± 1.2 °C
- Rectal temperatures °C. ([1]; 64 mg/kg intraperitoneal, 90 min): 33.7 ± 1.15 °C
- Rectal temperatures °C. ([1]; 64 mg/kg intraperitoneal, 120 min): 34.5 ± 1.0 °C
- Rectal temperatures °C. ([1]; 64 mg/kg oral, 30 min): 32.2 ± 0.32 °C
- Rectal temperatures °C. ([1]; 64 mg/kg oral, 60 min): 31.7 ± 0.52 °C
- Rectal temperatures °C. ([1]; 64 mg/kg oral, 90 min): 32.8 ± 0.73 °C
- Rectal temperatures °C. ([1]; 64 mg/kg oral, 120 min): 34.1 ± 0.62 °C
- Rectal temperatures °C. ([1]; 128 mg/kg oral, 30 min): 34.8 ± 0.80 °C
- Rectal temperatures °C. ([1]; 128 mg/kg oral, 60 min): 34.9 ± 0.59 °C
- Rectal temperatures °C. ([1]; 128 mg/kg oral, 90 min): 36.2 ± 0.82 °C
- Rectal temperatures °C. ([1]; 128 mg/kg oral, 120 min): 37.1 ± 0.77 °C
- Rectal temperatures °C. ([1]; 256 mg/kg oral, 30 min): 32.4 ± 0.63 °C
- Rectal temperatures °C. ([1]; 256 mg/kg oral, 60 min): 31.3 ± 0.73 °C
- Rectal temperatures °C. ([1]; 256 mg/kg oral, 90 min): 32.4 ± 1.07 °C
- Rectal temperatures °C. ([1]; 256 mg/kg oral, 120 min): 33.9 ± 1.30 °C
- % of mice which have slept ([2]; 2 mg/kg intraperitoneal): 100%
- Time in minutes for induction of sleep ([2]; 2 mg/kg intraperitoneal): 4 min
- Time in minutes of sleep ([2]; 2 mg/kg intraperitoneal): 47 ± 7 min
- % of mice which have slept ([2]; 2 mg/kg oral): 100%
- Time in minutes for induction of sleep ([2]; 2 mg/kg oral): 4 min
- Time in minutes of sleep ([2]; 2 mg/kg oral): 60 ± 8 min
- % of mice which have slept ([2]; 4 mg/kg intraperitoneal): 100%
- Time in minutes for induction of sleep ([2]; 4 mg/kg intraperitoneal): 4 min
- Time in minutes of sleep ([2]; 4 mg/kg intraperitoneal): 55 ± 8 min
- % of mice which have slept ([2]; 4 mg/kg oral): 100%
- Time in minutes for induction of sleep ([2]; 4 mg/kg oral): 4 min
- Time in minutes of sleep ([2]; 4 mg/kg oral): 45 ± 4 min
- % of mice which have slept ([2]; 8 mg/kg intraperitoneal): 100%
